According to paper PMC9106635, “Stimulation of the atypical chemokine receptor 3 (ACKR3) by a small-molecule agonist attenuates fibrosis in a preclinical liver but not lung injury model” (Cellular and Molecular Life Sciences: CMLS, 2022):

Experiments:
hCCR5 = target: T1, hCCR5 (Homo sapiens, UniProt P51681); assay: Ca2+ mobilization assay, U87.CD4.CCR5 cells, CCL5-induced; type: cell-based; settings: antagonism of CCL5 response
T1 construct: expressed in transfected cells; host or cells: U87.CD4.CCR5
T1 sequence (P51681 whole entry): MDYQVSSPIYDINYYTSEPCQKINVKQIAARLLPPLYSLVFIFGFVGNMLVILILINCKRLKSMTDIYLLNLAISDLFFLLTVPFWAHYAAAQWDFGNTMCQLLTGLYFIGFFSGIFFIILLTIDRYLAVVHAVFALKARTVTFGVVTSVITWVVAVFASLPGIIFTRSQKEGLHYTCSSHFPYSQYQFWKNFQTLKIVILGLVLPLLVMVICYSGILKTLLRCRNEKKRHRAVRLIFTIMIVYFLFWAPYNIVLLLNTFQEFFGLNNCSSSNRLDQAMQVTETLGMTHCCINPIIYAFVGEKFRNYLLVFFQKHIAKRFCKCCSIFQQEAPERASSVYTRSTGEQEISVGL
Description: The calcium (Ca^2+) mobilization assay was described in detail before. Briefly, U87.CD4.CXCR4 or U87.CD4.CCR5 cells (2 × 10^4 cells per well in DMEM/10% FBS/0.01 M HEPES) were seeded in gelatin-coated (Sigma-Aldrich; 0.1% gelatin in DPBS) black-walled 96-well plates and incubated overnight at 37 °C and 5% CO2. The next day, cells were loaded with the fluorescent Ca^2+ indicator Fluo-2 acetoxymethyl (AM) ester (4 μM final concentration; Abcam) and incubated at RT in the dark for 45 min. Then, cells were washed with assay buffer (see above) and subsequently incubated with different concentrations of compound for ~ 10 min prior to addition of 6.25 nM CXCL12 (in case of CXCR4) or 6.4 nM CCL5 (in case of CCR5). Fluctuations in intracellular Ca^2+ levels were measured in real time by the FLIPR Tetra® device (Molecular Devices) in all 96 wells simultaneously. The response (Relative Light Units, RLUs) over baseline was calculated (ScreenWorks 4.0® software, Molecular Devices) by dividing the RLUs by a base line value measured just before addition of CXCL12 or CCL5, respectively. Inhibition of the Ca^2+ response was determined taking into account negative (i.e., untreated cells without stimulation) and positive (i.e., untreated cells stimulated with either CXCL12 or CCL5) control samples.

[1] = system: fibrosis-associated genes (lung mRNA); assay: qRT-PCR of fibrosis-associated genes in lung tissue; type: in vivo, mouse
Description: Total RNA was prepared from snap-frozen liver tissue (the lateral and medial right lobes and the caudate lobe; Supplementary Figure S1a) or lung tissue (cranial right lobe; Supplementary Figure S1b) after homogenization on ice in TRIZol. For quantitative qRT-PCR, cDNA was made from 0.5 μg of RNA using the GoScript reverse transcription system (Promega) according to the manufacturer’s protocol. QRT-PCR was performed (for 40 cycles) with the Quantstudio3 Applied Biosystems (ABI) system using Sybr green (ABI) followed by melting curve analysis. Expression was calculated using the delta threshold cycle (ΔCT) method with Gapdh as reference gene (previously validated as stable house-keeping gene in the CCl4 model and in the bleomycin model, current study, not shown). Forward (F) and reverse (R) primer sequences were (5’-3’): Gapdh: F: ccgcatcttcttgtgcagt, R: […]; Col1a1: F: […], R: […]; Ackr3: F: […], R: […]; Cxcr4: F: […], R: […]; Golm1: F: […], R: […]; Lgals3: F: […], R: […]; Unc93b1: F: […], R: […]; Slc15a3: F: […], R: […]; Sec24d: F: […], R: […]; Cxcl10: F: […], R: […]; and Clec4n: F: […], R: […]. Data are expressed as mean ± sem. […] The scaled counts were base log2-transformed and data were expressed as fold-change versus the reference condition (CCl4 + 23% HPBCD). […]

- IC50 (hCCR5): > 40 µM
Structure (SMILES): CCc1ccn2ccnc2c1N1CCCN(C(CC(N)=O)C2CCN(C(=O)C3CC4CCC3O4)CC2)CC1 (stereo not drawn) [compound 18a]
- Lgals3 expression in lung tissue ([1]; bleomycin model, day 21, qRT-PCR): similarly lowered
- number of these 8 genes similarly affected in lung ([1]; bleomycin-exposed lungs, day 21): 1
